From patent US4918073A, “Diarylalkyl-substituted alkylamines and medicaments containing them” (Hoechst Aktiengesellschaft, priority 1986, dated 1990)
Read-outs that look alike come from different tables or passages of the source.

Columns and labels:
[1] = target: 3H-nitrendipine binding, membrane preparation from the cortex of the rat brain; test: displacement of tritium-labeled nitrendipine from rat brain cortex membranes (calcium-antagonistic activity); conditions: 3H-nitrendipine 0.1 nM, TRIS buffer pH 7.4, 25° C., 60 minutes; read-out: IC50 (displacement of 50% of the radioactively labeled nitrendipine)
Protocol: This test was carried out in a membrane preparation obtained from the cortex of the rat brain and washed several times, the method described by R. J. Gould et al. (Proc. Natl. Acad. Sci. U.S.A. 79, 3656 [1982]) essentially being used. […] The membrane fractions were separated off by vacuum filtration over Whatman-GF/F glass fiber filters and the radioactivity was measured in a liquid scintillation counter. […] The IC50 value, i.e. the concentration of test substance which is capable of displacing 50% of the radioactively labeled nitrendipine, is determined as the characteristic parameter.

[2] = tested on: isolated guineapig heart; test: coronary circulation on the isolated guineapig heart (Langendorff); conditions: Cavia porcellus, vs control hearts; for activation at 0.0001 mg: dose 0.1 μg via feed tube; for activation at 0.0005 mg: dose 0.5 μg via feed tube
Protocol: For this test, female heparinized (2.5 mg of heparin sodium intraperitoneally 1 hour before sacrifice) guineapigs (220-250 g) were sacrificed by a blow on the neck. Immediately after the thorax has been opened, cardiac arrest was induced by cooling the heart with icecold saline solution. The ascending aorta was catheterized and connected to a non-recirculating perfusion system (hydrostatic pressure 65 cm of H2 O) in accordance with the method of Langendorff. Exposure of the heart was folowed by a perfusion period of 30 minutes for adaptation of the heart to the isolated state. A modified Krebs-Henseleit bicarbonate solution (113.8 mM NaCl, 22.0 mM NaHCO3, 4.7 mM KCl, 1.2 mM KH2 PO4, 1.1 mM MgSO4 ×7 H2 O and 2.5 mM CaCl2 ×2 H2 O, equilibrated with 95% of O2 and 5% of CO2, pH 7.41, 38° C.) was used as the perfusate. Glucose (11 mM) and sodium pyruvate (2.0 mM) were added. The osmolality of the perfusate was kept constant by adjusting the amount of NaCl. The hearts were loaded with a resting voltage of 2 pond (p). The heart rate and contraction force were recorded isometrically and the equipment for this (Hellige GmbH, Freiburg, Germany) were calibrated to 2 p. The coronary flow was determined with the aid of a drop counter, 7 drops corresponding to 1 ml. The values stated are expressed as the percentage increase in coronary circulation after administration of the test substance in the stated dosage via a feed tube (0.1% strength solution in propanediol), based on control hearts without addition of the test substance. The following table contains some of the values measured:
(a) mean value of 28 measurements
(b) the values stated result from in each case two measurements.

[3] = values from in each case two measurements, read-out: Increase in coronary circulation

Fc1ccc(C(CCCN2CCN(CCOC3CCCCC3)CC2)c2ccc(F)cc2)cc1 [Example 16, 1-[4,4-bis(4-fluorophenyl)butyl]-4-[(2-cyclohexoxy)-ethyl]piperazine]
IC50 [1]: 22 nM

Cc1ccc(OCCN2CCN(CCCC(c3ccc(F)cc3)c3ccc(F)cc3)CC2)cc1 [Example 17]
activation at 0.0001 mg [2, 3]: 14 to 17%
activation at 0.0005 mg [2, 3]: 33 to 38%
IC50 [1]: 12 nM

Fc1ccc(C(CCCN2CCN(CCOc3cccc4ccccc34)CC2)c2ccc(F)cc2)cc1 [Example 18, 1-[4,4-bis(4-fluorophenyl)butyl]-4-[2-(1-naphthyloxy)ethyl]piperazine]
IC50 [1]: 48 nM

Fc1ccc(C(CCCN2CCN(CCCCOc3cccc4cnccc34)CC2)c2ccc(F)cc2)cc1 [Example 22]
IC50 [1]: 85 nM

Fc1ccc(C(CCCN2CCN(CCOc3cccc4ncccc34)CC2)c2ccc(F)cc2)cc1 [Example 28]
IC50 [1]: 65 nM

Fc1ccc(C(CCCN2CCC(CCOc3cccc4cnccc34)CC2)c2ccc(F)cc2)cc1 [Example 32]
IC50 [1]: 12 nM

Fc1cccc(C(CCCN2CCN(CCOc3cccc4cnccc34)CC2)c2cccc(F)c2)c1 [Example 36]
IC50 [1]: 90 nM

CN(CCCC(c1ccc(F)cc1)c1ccc(F)cc1)C1CCN(CCOc2cccc3cnccc23)CC1 [Example 37]
IC50 [1]: 400 nM

O=[N+]([O-])c1ccc(OCCN2CCN(CCCC(c3ccc(F)cc3)c3ccc(F)cc3)CC2)cc1 [Example 41]
IC50 [1]: 8.5 nM

COc1ccc(OCCN2CCN(CCCC(c3ccc(F)cc3)c3ccc(F)cc3)CC2)cc1 [Example 42]
activation at 0.0005 mg [2, 3]: 20 to 29%

Fc1ccc(OCCN2CCN(CCCC(c3ccc(F)cc3)c3ccc(F)cc3)CC2)cc1 [Example 45]
activation at 0.0001 mg [2, 3]: 13 to 26%
activation at 0.0005 mg [2, 3]: 38 to 57%
IC50 [1]: 11 nM

CC(C)(C)c1ccc(OCCN2CCN(CCCC(c3ccc(F)cc3)c3ccc(F)cc3)CC2)cc1 [Example 46]
activation at 0.0001 mg [2, 3]: 12 to 23%
activation at 0.0005 mg [2, 3]: 21 to 36%

Fc1ccc(C(CCCN2CCN(CCOc3ccc(C(F)(F)F)cc3)CC2)c2ccc(F)cc2)cc1 [Example 50]
activation at 0.0001 mg ([2]; mean value of 28 measurements, read-out: Increase in coronary circulation (mean value)): 38%
IC50 [1]: 4 nM

NC(=O)C1CN(CCOc2ccccc2)CCN1CCCC(c1ccc(F)cc1)c1ccc(F)cc1 (centres unmarked) [Example 56]
activation at 0.001 mg ([2]; dose 1.0 μg via feed tube, values from in each case two measurements, read-out: Increase in coronary circulation): 40 to 65%
IC50 [1]: 180 nM

O=C(O)C1CN(CCCC(c2ccc(F)cc2)c2ccc(F)cc2)CCN1CCOc1cccc2ccccc12 (centres unmarked) [Example 61]
IC50 [1]: 60 nM

Fc1ccc(C(CCCN2CCN(CCOc3c(Cl)cccc3Cl)CC2)c2ccc(F)cc2)cc1 [Example 62]
activation at 0.0001 mg [2, 3]: 9 to 13%

CC(=O)c1cccc(OCCN2CCN(CCCC(c3ccc(F)cc3)c3ccc(F)cc3)CC2)c1 [Example 64]
IC50 [1]: 19 nM

CC(=O)c1ccccc1OCCN1CCN(CCCC(c2ccc(F)cc2)c2ccc(F)cc2)CC1 [Example 66]
IC50 [1]: 12 nM

Fc1ccc(C(CCCN2CCN(CCOc3ccccc3C(F)(F)F)CC2)c2ccc(F)cc2)cc1 [Example 67]
activation at 0.0001 mg [2, 3]: 5 to 21%
activation at 0.0005 mg [2, 3]: 23 to 35%

Fc1ccc(C(CCCN2CCN(CCOc3cccc(C(F)(F)F)c3)CC2)c2ccc(F)cc2)cc1 [Example 68]
activation at 0.0001 mg [2, 3]: 20 to 29%
IC50 [1]: 0.9 nM

Fc1ccc(C(CCCN2CCN(CCOc3cc(C(F)(F)F)cc(C(F)(F)F)c3)CC2)c2ccc(F)cc2)cc1 [Example 69]
IC50 [1]: 2 nM

CCOC(=O)c1ccc(OCCN2CCN(CCCC(c3ccc(F)cc3)c3ccc(F)cc3)CC2)cc1 [Example 70]
activation at 0.0005 mg [2, 3]: 36 to 52%

Fc1ccc(C(CCCN2CCC(CCOc3ccc(C(F)(F)F)cc3)CC2)c2ccc(F)cc2)cc1 [Example 71]
IC50 [1]: 4.2 nM

Fc1ccc(C(CCCN2CCC(CCOc3ccccc3C(F)(F)F)CC2)c2ccc(F)cc2)cc1 [Example 73]
IC50 [1]: 1.2 nM

Fc1ccc(C(CCCN2CCC(CCOc3cccc(C(F)(F)F)c3)CC2)c2ccc(F)cc2)cc1 [Example 74]
IC50 [1]: 1 nM

CSc1ccc(OCCN2CCN(CCCC(c3ccc(F)cc3)c3ccc(F)cc3)CC2)cc1 [Example 75]
IC50 [1]: 9 nM

Fc1ccc(C(CCCN2CCN(CCOc3ccc(Br)cc3)CC2)c2ccc(F)cc2)cc1 [Example 81]
IC50 [1]: 3.6 nM

CN(C)S(=O)(=O)c1ccc(OCCN2CCN(CCCC(c3ccc(F)cc3)c3ccc(F)cc3)CC2)cc1 [Example 83]
IC50 [1]: 70 nM

Cc1cccc(C)c1NC(=O)CN1CCN(CCCC(c2ccc(F)cc2)c2ccc(F)cc2)CC1 [Lidoflazine, reference compound]
IC50 [1]: 430 nM
